Source: patent US10314920B2, “Therapeutic dendrimers” (ASTRAZENECA AB, priority 2017, dated 2019)
Converted amounts (≈) assume the structure as drawn. “And” between values parts separate entries of the source, which are not always exact repeats. Identical values can stand only once. “Also recorded” adds a separate entry of the source.

Assays:
[1] = Plasma protein binding, Equilibrium Dialysis RED device, rabbit plasma; assay type: in vitro ADME; conditions: female, New Zealand White, pooled frozen plasma, 30 hours at 37° C., read-out: percentage unbound
Description: (§1) Protein binding of Compound A (prepared as DMSO stock solutions and spiked into plasma at nominal incubation concentrations of 0.1, 1, 10 and 100 μmol/L) was evaluated in pooled frozen plasma obtained from male CD-1 mice, male Han Wistar rats, female New Zealand White rabbits, male Beagle dogs and male humans in triplicate using Equilibrium Dialysis RED device methodology (Waters N J et al., Validation of a Rapid Equilibrium Dialysis Approach for the Measurement of Plasma Protein Binding, Journal of Pharmaceutical Sciences; 2008; Volume 97; Issue 10; Pages 4586-4595, 2008). Incubations were conducted over an equilibration time of 30 hours at 37° C. Sample analysis was by HPLC-MS/MS and employed an [^13C, ^2H7] Compound A internal standard using the following bioanalytical method: […]

[2] = Plasma protein binding, Equilibrium Dialysis RED device, human plasma; assay type: in vitro ADME; conditions: male, pooled frozen plasma, 30 hours at 37° C., read-out: percentage unbound
Description: as §1

[3] = Plasma protein binding, Equilibrium Dialysis RED device, dog plasma; assay type: in vitro ADME; conditions: male, Beagle, pooled frozen plasma, 30 hours at 37° C., read-out: percentage unbound
Description: as §1

[4] = Log D, octanol/water shake-flask; assay type: physicochemical; conditions: octanol / 10 mM sodium phosphate buffer pH 7.4
Description: Lipophilicity (Log D) of Compound A was measured using octanol/water shake-flask principles. The aqueous solution used was a 10 mM sodium phosphate buffer with pH adjusted to 7.4. Octanol was used as the organic partitioning layer.

[5] = Plasma protein binding, Equilibrium Dialysis RED device, rat plasma; assay type: in vitro ADME; conditions: male, Han Wistar, pooled frozen plasma, 30 hours at 37° C., read-out: percentage unbound
Description: as §1

[6] = test system: RS4;11 Acute Lymphoblastic Leukemia Xenograft; experiment: Efficacy of Compound A (HP-β-CD) at different infusion length in RS4;11 xenograft model in rats; assay type: in vivo, rat; conditions: single IV 5 hr infusion, 30% HP-β-CD
Description: Rag2−/− rats purchased from (SAGE) were inoculated with RS4;1 (10×10^6 cells/rat). When tumors grew to approximately […], rats were randomized to vehicle control (30% HP-β-CD) or Compound A 5 mg/kg in Vehicle 1) delivered as a single IV 30 min infusion (FIG. 6) and Vehicle control (30% HP-β-CD) or Compound A 5 mg/kg, 3 mg/kg and 1 mg/kg in Vehicle 1 delivered as a single IV 5 hr infusion (FIG. 7). The tumor sizes were measured twice a week and calculated as: Tumor Volume=(A×B^2)/2 where A and B are the tumor length and width (in mm), respectively.

[7] = Plasma protein binding, Equilibrium Dialysis RED device, mouse plasma; assay type: in vitro ADME; conditions: male, CD-1, pooled frozen plasma, 30 hours at 37° C., read-out: percentage unbound
Description: as §1

[8] = Cardiovascular telemetry studies in the rat; conditions: Compound A 10 mg/kg, single 30-minute intravenous infusion
Description: The telemetry transmitters were placed in the abdominal muscle and the arterial blood pressure catheter was placed in the abdominal aorta. The ECG electrodes were sutured to the dorsal surface of the xiphoid process and at the anterior mediastinum.
Compound A was administered at dose levels of 0 and 10 mg/kg.
Cardiovascular parameters were recorded continuously via receivers placed beneath the home cage for at least 1 hour pre-dose and up to 72 hours post-dose. Blood samples were taken to determine the level of plasma exposure of Compound A and all dendrimers, with clinical pathology and limited tissues for target organ histopathology taken from animals dosed with the macromolecule constructs only.

[9] = Solubility of Compound A (Form B), shake flask method; assay type: physicochemical; conditions: thermodynamic from solid, crystalline Form B, room temperature 24 hours
Description: The solubility of Compound A (Form B) was determined in water and propylene glycol. […] The solutions were centrifuged using ultra centrifuge for 30 min at 40,000 rpm, supernatant were transferred to a new centrifuge tube and centrifuged for another 30 min at 40,000 rpm. The propylene glycol supernatant was then assayed using a UV-HPLC method. The water supernatant was ultra-centrifuged for a third time before assay.

RS4;11 cells = experiment: Efficacy of dendrimers in RS4;11 xenograft model in mice; assay type: in vivo, mouse
Description: 5×10^6 RS4;11 cells in a total volume of 100 μl were inoculated subcutaneously at the mouse right flank. When the tumor volume reached approximately ˜350 mm^3, tumor-bearing mice were randomized into groups of 4 animals and treated with either control Vehicle (PBS) or treatment.
(§2) On specific day, for each treated group, calculate Inhibition value by formula: Inhibition %=(CG−TG)*100/(CG−1), in which “CG” means the geometric mean of rtv of the control group and “TG” means the Geometric Mean of Relative Tumor Volume (rtv) of the treated group. “CG” should use the corresponding control group of the treated group when calculated. If Inhibition >100%, then it's necessary to calculate the Regression by formula: Regression=1−TG

SuDHL-4 xenograft = SuDHL-4 xenograft model in SCID mice, alone and with rituximab; assay type: in vivo, mouse
Description: The SuDHL-4 xenograft model was used to test the ability of Examples 6 and 9 to enhance the activity of rituximab in inhibiting tumor growth. When tumors grew to approximately 175-250 mm^3, mice were randomized to the following groups:
The tumor sizes were measured 2 times a week and calculated as: Tumor Volume=(A×B^2)/2 where A and B are the tumor length and width (in mm), respectively.
Table 17 summarizes the tumor growth inhibition (TIC) and tumor growth delay (T-C) values calculated as % Inhibition & % Regression. The calculation is based on the geometric mean of RTV in each group.
as §2

OCI-Ly10 tumor cells = experiment: In vivo anti-tumor activity in human DLBCL model (OCI-Ly10); set-up: species or system mouse; conditions: single agent, 12.5 mg/kg twice a day oral
Description: 5×10^6 OCI-Ly10 tumor cells were injected subcutaneously in the right flank of C.B.-17 SCID female mice in a volume of 0.1 mL containing 50% matrigel. Example 9 was formulated in citrate/phosphate buffer pH 5.0, diluted 1 to 10 with 5% glucose containing 1% w/v Kolliphor HS15, and dosed as a weekly intravenous (iv) administration at a volume of 5 mL/kg at a dose of 103 mg/kg (30 mg/kg API). Acalabrutinib was formulated in 0.5% hydroxypropyl methyl cellulose/0.2% Tween 80, and dosed twice a day (bid) as an oral (po) administration at a volume of 10 mL/kg at a dose of 12.5 mg/kg. Tumor volumes (measured by caliper), animal body weight, and tumor condition were recorded twice weekly for the duration of the study. The tumor volume was calculated using the formula:length (mm)×width (mm)^2×0.52. For efficacy studies, growth inhibition from the start of treatment was assessed by comparison of the differences in tumor volume between control and treated groups. Dosing began when mean tumor size reached approximately 166 mm3.

NCI-H1048 tumor cells = experiment: In vivo anti-tumor activity in human small cell lung cancer tumor model (NCI-H1048); set-up: species or system mouse; conditions: 15 mg/kg daily (qd), oral
Description: AZD2014 was formulated in 0.5% hydroxypropyl methylcellulose/0.1% Tween 80 and dosed oral in a volume of 10 ml/kg 5×10^6 NCI-H1048 tumor cells were injected subcutaneously in the right flank of C.B.-17 SCID female mice in a volume of 0.1 mL containing 50% matrigel. Tumor volume (measured by caliper) was calculated using the formula:length (mm)×width (mm)^2×0.52. For efficacy studies, mice were randomized based on tumor volume and growth inhibition was assessed by comparison of the differences in tumor volume between control and treated groups. Dosing began when mean tumor volume reached approximately 124 mm^3.

Q: For `CN(CCO)CC[C@H](CSc1ccccc1)Nc1ccc(S(=O)(=O)NC(=O)c2ccc(N3CCC([C@@H](O)c4ccccc4-c4ccc(Cl)cc4)CC3)cc2)cc1S(=O)(=O)C(F)(F)F` [Compound A, 4-(4-((R)-(4′-chlorobiphenyl-2-yl)(hydroxy)methyl)piperidin-1-yl)-N-(4-((R)-4-((2-hydroxyethyl)(methyl)amino)-1-(phenylthio)butan-2-ylamino)-3-(trifluoromethylsulfonyl)phenylsulfonyl)benzamide], which fraction unbound at 30 h, 100 μmol/L [1] is on record?
A: Its fraction unbound at 30 h, 100 μmol/L is 1.53e-05.

Q: What about the fraction unbound at 30 h, 100 μmol/L [2] of the same compound?
A: Its fraction unbound at 30 h, 100 μmol/L is 1.96e-05.

Q: What about the fraction unbound at 30 h, 100 μmol/L [3] of the same compound?
A: The fraction unbound at 30 h, 100 μmol/L was less than 1e-05.

Q: What about the logD [4] of the same compound?
A: Its logD is greater than 3.5.

Q: What about the fraction unbound at 30 h, 100 μmol/L [5] of the same compound?
A: The fraction unbound at 30 h, 100 μmol/L was less than 1e-05.

Q: And the “efficacy when the infusion was prolonged” value [6]?
A: The value was “Comparable efficacy”.

Q: What about the fraction unbound at 30 h, 100 μmol/L [7] of the same compound?
A: Its fraction unbound at 30 h, 100 μmol/L is 2.35e-05.

Q: And the Cardiovascular [8]?
A: The Cardiovascular was “biphasic decrease in systolic and mean arterial blood pressure; also recorded: increases in heart rate; also recorded: decrease in QRS amplitude”.

Q: What about the In-life [8] of the same compound?
A: Its In-life is “three rats were found dead and 3 found dead”.

Q: And the solubility at 24 h ([9]; organic solvent or mixture, propylene glycol)?
A: The solubility at 24 h was 6120 µg/mL (≈ 6.47 mM).

Q: And the solubility at 24 h ([9]; water, final pH 8.7)?
A: The solubility at 24 h was less than 1 µg/mL.

Q: What about the “% Inhibition Day (47)” value (RS4;11 cells; Compound A 5 mg/kg) of the same compound?
A: Its value is greater than 100%.

Q: What about the “% Regression Day(47)” value (RS4;11 cells; Compound A 5 mg/kg) of the same compound?
A: Its value is 90%.

Q: What about the regression (RS4;11 cells; Compound A HP-β-CD 10 mg/kg IV once) of the same compound?
A: Its regression is 90%.

Q: For rituximab [reference compound], which “T-C” value (SuDHL-4 xenograft; rituximab 10 mg/kg) is on record?
A: Its value is greater than 16 days.

Q: And the “% Inhibition (TIC) Day (41)” value (SuDHL-4 xenograft; rituximab 10 mg/kg i.p. once a week for 5 weeks)?
A: Its value is 75.27%.

Q: Which “tumor growth inhibition (TGI)” value (OCI-Ly10 tumor cells) does the source give for `CC#CC(=O)N1CCC[C@H]1c1nc(-c2ccc(C(=O)Nc3ccccn3)cc2)c2c(N)nccn12` [acalabrutinib, reference compound] here?
A: The value was roughly 58%.

Q: For `CNC(=O)c1cccc(-c2ccc3c(N4CCOC[C@@H]4C)nc(N4CCOC[C@@H]4C)nc3n2)c1` [AZD2014, vistusertib, reference compound], which TGI (NCI-H1048 tumor cells) is on record?
A: Its TGI is 84%.
